Measured values from patent publication US20240002365A1, “PYRIDAZINE AND 1,2,4-TRIAZINE DERIVATIVES AS FGFR KINASE INHIBITORS” (BETA PHARMA, INC., priority 2020, published 2024).

Target: FGFR1 (Homo sapiens (Human), UniProt P11362)
Test: RBC NanoBRET Assay for Target Engagement in HEK293 cells transfected with FGFR1-NanoLuc Fusion vector
Assay type: cell-based
Details: 1 hour, tracer K5 1 μM
Description: Cellular Assay. The RBC NanoBRET Assay for Target Engagement was performed by Reaction Biology Corporation, 1 Great Valley Parkway, Suite 2 Malvern, PA 19355, USA. The assay was conducted in HEK293 cells transiently transfected with FGFR1-NanoLuc Fusion vector. The HEK293 cells (ATCC) were transfected with 1 μg of FGFR1-NanoLuc Fusion vector in 384-well format and the transfected cells were subsequently treated with the test compounds (starting at 10 μM, 10-dose with 3-fold dilution) for 1 hour using CTx-0294885 as the reference standard and K5 (1 μM) was used as the tracer. FGFR1 target engagement was measured and the curve fits were performed only when % NanoBret signal at the highest concentration of compounds was less than 55%.

Sequence of FGFR1 (P11362 22-822): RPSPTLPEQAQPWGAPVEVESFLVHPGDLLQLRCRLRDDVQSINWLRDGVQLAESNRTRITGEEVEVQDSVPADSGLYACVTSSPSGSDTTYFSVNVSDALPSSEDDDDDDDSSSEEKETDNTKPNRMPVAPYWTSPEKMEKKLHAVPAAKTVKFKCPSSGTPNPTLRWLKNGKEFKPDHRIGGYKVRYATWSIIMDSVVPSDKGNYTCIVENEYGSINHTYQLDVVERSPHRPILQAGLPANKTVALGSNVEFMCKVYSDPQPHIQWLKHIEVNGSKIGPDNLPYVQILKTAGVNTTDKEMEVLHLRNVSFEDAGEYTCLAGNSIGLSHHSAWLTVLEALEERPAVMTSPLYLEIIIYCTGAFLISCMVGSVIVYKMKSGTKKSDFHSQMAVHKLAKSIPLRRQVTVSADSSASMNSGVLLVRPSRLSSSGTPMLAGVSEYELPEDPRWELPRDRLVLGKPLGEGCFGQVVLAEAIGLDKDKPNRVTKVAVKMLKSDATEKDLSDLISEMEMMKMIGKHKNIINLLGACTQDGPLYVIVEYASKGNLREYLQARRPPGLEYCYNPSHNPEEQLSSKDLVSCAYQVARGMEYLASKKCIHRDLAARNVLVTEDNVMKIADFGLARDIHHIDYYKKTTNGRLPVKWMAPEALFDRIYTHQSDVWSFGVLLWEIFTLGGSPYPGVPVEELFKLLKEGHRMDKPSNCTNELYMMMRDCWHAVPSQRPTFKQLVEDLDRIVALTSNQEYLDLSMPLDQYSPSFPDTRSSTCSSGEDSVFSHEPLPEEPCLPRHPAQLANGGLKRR

IC50: 35 nM
SMILES: CNC(=O)c1ccccc1Nc1nc(Nc2ccc(N3CCNCC3)cc2)ncc1Cl [CTx-0294885, reference compound]
